Numbered stars: 1 amine (or outer) side, 2 acyl side, 3 side chain; on linkers, the order of the positions; unused ones are H or OH. Square brackets hold non-standard residues; d marks the D form. Side chains are listed from the residue outwards. Peptide text beside a SMILES is read from it. * marks the point of attachment. Isobutyryl(2-(3-CN-5-F-Ph)) = CC(C)(C(=O)*)c1cc(F)cc(C#N)c1; C20 diacid = O=C(O)CCCCCCCCCCCCCCCCCCC(=O)*; γGlu = O=C(O)[C@H](CCC(=O)[*:2])N[*:1]; AEEA = NCCOCCOCC(=O)O; Aib = CC(C)(N)C(=O)O; βAla = NCCC(=O)O
Experiment: Phase 1 SAD Cohorts 1-5: safety and tolerability (adverse events)
Type: in vivo, human
Details: for AE: Abdominal bloating / AE: Abdominal cramp / AE: Abdominal cramp with loose bowel / AE: Abdominal pain / AE: Abnormal LFTs / AE: Constipation / AE: Diarrhea / AE: Dyspepsia / AE: Dysphasia / AE: Early satiety / AE: Emesis / AE: Exacerbated GERD / AE: Fatigue / AE: Headache / AE: Indigestion / AE: Lethargy / AE: Loose bowel motion / AE: Loose stools / AE: Loss of Appetite / AE: Microscopic hematuria / AE: Nausea / AE: Reduced appetite / AE: Reduced bowel motion / AE: Reflux / AE: Throat discomfort / AE: Vomiting / Life-threatening TEAE / Moderate TEAEs / Related TEAEs / Serious TEAEs / Severe TEAEs / TEAE leading to death / TEAEs: N = 8, blinded
Description: This Example outlines the protocol for a Phase 1 randomized, double-blind, placebo-controlled study to evaluate the safety, tolerability, pharmacokinetics, and pharmacodynamics of CT-388 in otherwise healthy overweight and obese adult participants and in obese patients with type 2 diabetes mellitus.
The primary objective of this study is to determine the safety and tolerability of CT-388 in otherwise healthy overweight and obese adult participants when administered as a single dose of 0.5, 2.0, 5.0, 6.0, or 7.5 mg.
Safety and tolerability will be assessed by monitoring adverse events (AE) including local injection-site reactions, measuring vital signs and ECGs, and performing clinical laboratory blood and urine analyses.
• Cohort 1: One dose containing 0.5 mg of CT-388 or matched placebo administered subcutaneously in the abdomen • Cohort 2: One dose containing 2.0 mg of CT-388 or matched placebo administered subcutaneously in the abdomen • Cohort 3: One dose containing 5.0 mg of CT-388 or matched placebo administered subcutaneously in the abdomen • Cohort 4: One dose containing 7.5 mg of CT-388 or matched placebo administered subcutaneously in the abdomen • Cohort 5: One dose containing 6.0 mg of CT-388 or matched placebo administered subcutaneously in the abdomen
A Phase 1, randomized, placebo-controlled, double-blind study was conducted where single ascending doses (SAD; n=40; 0.5-7.5 mg) and multiple ascending doses (MAD; n=24; 5-12 mg via titration in 3 cohorts) were administered as described in Example 1 to overweight/obese adults.

[1] = Cohort 1, 0.5 mg/Placebo single SC dose
[2] = Cohort 2, 2 mg/Placebo single SC dose
[3] = Cohort 3, 5 mg/Placebo single SC dose
[4] = Cohort 4, 7.5 mg/Placebo single SC dose
[5] = Cohort 5, 6 mg/Placebo single SC dose

SMILES: CC[C@H](C)[C@H](NC(=O)[C@H](CC(C)C)NC(=O)[C@H](Cc1c[nH]c2ccccc12)NC(=O)[C@H](CCC(N)=O)NC(=O)[C@@H](NC(=O)[C@H](Cc1ccccc1)NC(=O)[C@H](C)NC(=O)[C@H](CCCCNC(=O)COCCOCCNC(=O)COCCOCCNC(=O)CC[C@H](NC(=O)CCCCCCCCCCCCCCCCCCC(=O)O)C(=O)O)NC(=O)[C@H](CCC(N)=O)NC(=O)[C@H](C)NC(=O)[C@@H](NC(=O)[C@H](CCCCN)NC(=O)[C@H](CC(=O)O)NC(=O)[C@H](CC(C)C)NC(=O)C(C)(C)NC(=O)[C@@H](NC(=O)[C@H](CO)NC(=O)[C@H](Cc1ccc(O)cc1)NC(=O)[C@H](CC(=O)O)NC(=O)[C@H](CO)NC(=O)[C@@H](NC(=O)[C@H](Cc1ccccc1)NC(=O)[C@@H](NC(=O)CNC(=O)[C@H](CCC(=O)O)NC(=O)CCNC(=O)C(C)(C)c1cc(F)cc(C#N)c1)[C@@H](C)O)[C@@H](C)O)[C@@H](C)CC)[C@@H](C)CC)C(C)C)C(=O)N[C@@H](C)C(=O)NCC(=O)NCC(=O)N1CCC[C@H]1C(=O)N[C@@H](CO)C(=O)N[C@@H](CO)C(=O)NCC(=O)N[C@@H](C)C(=O)N1CCC[C@H]1C(=O)N1CCC[C@H]1C(=O)N1CCC[C@H]1C(=O)N[C@@H](CO)C(N)=O [CT-388] ({Isobutyryl(2-(3-CN-5-F-Ph))-βAla}-EGTFTSDYSI[Aib]LDKIAQK([AEEA-AEEA-γGlu-C20 diacid])AFVQWLIAGGPSSGAPPPS-NH2)
- AE: Abdominal bloating [1]: 0
- AE: Abdominal cramp [1]: 0
- AE: Abdominal cramp with loose bowel [1]: 0
- AE: Abdominal pain [1]: 0
- AE: Abnormal LFTs [1]: 0
- AE: Constipation [1]: 0
- AE: Diarrhea [1]: 0
- AE: Dyspepsia [1]: 0
- AE: Dysphasia [1]: 0
- AE: Early satiety [1]: 0
- AE: Emesis [1]: 0
- AE: Exacerbated GERD [1]: 0
- AE: Fatigue [1]: 0
- AE: Headache [1]: 0
- AE: Indigestion [1]: 0
- AE: Lethargy [1]: 0
- AE: Loose bowel motion [1]: 0
- AE: Loose stools [1]: 0
- AE: Loss of Appetite [1]: 0
- AE: Microscopic hematuria [1]: 0
- AE: Nausea [1]: 0
- AE: Reduced appetite [1]: 0
- AE: Reduced bowel motion [1]: 0
- AE: Reflux [1]: 0
- AE: Throat discomfort [1]: 0
- AE: Vomiting [1]: 0
- Life-threatening TEAE [1]: 0
- Moderate TEAEs [1]: 0
- Related TEAEs [1]: 0
- Serious TEAEs [1]: 0
- Severe TEAEs [1]: 0
- TEAE leading to death [1]: 0
- TEAEs [1]: 8
- AE: Abdominal bloating [2]: 0
- AE: Abdominal cramp [2]: 0
- AE: Abdominal cramp with loose bowel [2]: 2 (25.0%)
- AE: Abdominal pain [2]: 0
- AE: Abnormal LFTs [2]: 0
- AE: Constipation [2]: 2 (25.0%)
- AE: Diarrhea [2]: 0
- AE: Dyspepsia [2]: 0
- AE: Dysphasia [2]: 0
- AE: Early satiety [2]: 1 (12.5%)
- AE: Emesis [2]: 0
- AE: Exacerbated GERD [2]: 0
- AE: Fatigue [2]: 2 (25.0%)
- AE: Headache [2]: 1 (12.5%)
- AE: Indigestion [2]: 0
- AE: Lethargy [2]: 1 (12.5%)
- AE: Loose bowel motion [2]: 0
- AE: Loose stools [2]: 0
- AE: Loss of Appetite [2]: 2 (25.0%)
- AE: Microscopic hematuria [2]: 0
- AE: Nausea [2]: 0
- AE: Reduced appetite [2]: 0
- AE: Reduced bowel motion [2]: 0
- AE: Reflux [2]: 0
- AE: Throat discomfort [2]: 0
- AE: Vomiting [2]: 0
- Life-threatening TEAE [2]: 0
- Moderate TEAEs [2]: 1
- Related TEAEs [2]: 6
- Serious TEAEs [2]: 0
- Severe TEAEs [2]: 0
- TEAE leading to death [2]: 0
- TEAEs [2]: 8
- AE: Abdominal bloating [3]: 0
- AE: Abdominal cramp [3]: 0
- AE: Abdominal cramp with loose bowel [3]: 0
- AE: Abdominal pain [3]: 0
- AE: Abnormal LFTs [3]: 0
- AE: Constipation [3]: 0
- AE: Diarrhea [3]: 0
- AE: Dyspepsia [3]: 1 (12.5%)
- AE: Dysphasia [3]: 1 (12.5%)
- AE: Early satiety [3]: 0
- AE: Emesis [3]: 2 (25.0%)
- AE: Exacerbated GERD [3]: 0
- AE: Fatigue [3]: 0
- AE: Headache [3]: 0
- AE: Indigestion [3]: 1 (12.5%)
- AE: Lethargy [3]: 0
- AE: Loose bowel motion [3]: 0
- AE: Loose stools [3]: 0
- AE: Loss of Appetite [3]: 1 (12.5%)
- AE: Microscopic hematuria [3]: 1 (12.5%)
- AE: Nausea [3]: 0
- AE: Reduced appetite [3]: 0
- AE: Reduced bowel motion [3]: 0
- AE: Reflux [3]: 0
- AE: Throat discomfort [3]: 0
- AE: Vomiting [3]: 0
- Life-threatening TEAE [3]: 0
- Moderate TEAEs [3]: 0
- Related TEAEs [3]: 4
- Serious TEAEs [3]: 0
- Severe TEAEs [3]: 0
- TEAE leading to death [3]: 0
- TEAEs [3]: 6
- AE: Abdominal bloating [4]: 1 (12.5%)
- AE: Abdominal cramp [4]: 1 (12.5%)
- AE: Abdominal cramp with loose bowel [4]: 0
- AE: Abdominal pain [4]: 0
- AE: Abnormal LFTs [4]: 1 (12.5%)
- AE: Constipation [4]: 0
- AE: Diarrhea [4]: 2 (25.0%)
- AE: Dyspepsia [4]: 0
- AE: Dysphasia [4]: 0
- AE: Early satiety [4]: 0
- AE: Emesis [4]: 0
- AE: Exacerbated GERD [4]: 1 (12.5%)
- AE: Fatigue [4]: 0
- AE: Headache [4]: 2 (25.0%)
- AE: Indigestion [4]: 0
- AE: Lethargy [4]: 0
- AE: Loose bowel motion [4]: 0
- AE: Loose stools [4]: 1 (12.5%)
- AE: Loss of Appetite [4]: 1 (12.5%)
- AE: Microscopic hematuria [4]: 0
- AE: Nausea [4]: 6 (75.0%)
- AE: Reduced appetite [4]: 2 (25.0%)
- AE: Reduced bowel motion [4]: 1 (12.5%)
- AE: Reflux [4]: 2 (25.0%)
- AE: Throat discomfort [4]: 1 (12.5%)
- AE: Vomiting [4]: 3 (37.5%)
- Life-threatening TEAE [4]: 0
- Moderate TEAEs [4]: 5
- Related TEAEs [4]: 7
- Serious TEAEs [4]: 1
- Severe TEAEs [4]: 1
- TEAE leading to death [4]: 0
- TEAEs [4]: 8
- AE: Abdominal bloating [5]: 0
- AE: Abdominal cramp [5]: 0
- AE: Abdominal cramp with loose bowel [5]: 0
- AE: Abdominal pain [5]: 1 (12.5%)
- AE: Abnormal LFTs [5]: 0
- AE: Constipation [5]: 1 (12.5%)
- AE: Diarrhea [5]: 0
- AE: Dyspepsia [5]: 0
- AE: Dysphasia [5]: 0
- AE: Early satiety [5]: 0
- AE: Emesis [5]: 0
- AE: Exacerbated GERD [5]: 0
- AE: Fatigue [5]: 0
- AE: Headache [5]: 1 (12.5%)
- AE: Indigestion [5]: 0
- AE: Lethargy [5]: 0
- AE: Loose bowel motion [5]: 1 (12.5%)
- AE: Loose stools [5]: 0
- AE: Loss of Appetite [5]: 1 (12.5%)
- AE: Microscopic hematuria [5]: 0
- AE: Nausea [5]: 2 (25.0%)
- AE: Reduced appetite [5]: 1 (12.5%)
- AE: Reduced bowel motion [5]: 0
- AE: Reflux [5]: 0
- AE: Throat discomfort [5]: 0
- AE: Vomiting [5]: 2 (25.0%)
- Life-threatening TEAE [5]: 0
- Moderate TEAEs [5]: 2
- Related TEAEs [5]: 4
- Serious TEAEs [5]: 1
- Severe TEAEs [5]: 1
- TEAE leading to death [5]: 0
- TEAEs [5]: 6
- safety and tolerability (SAD Cohorts 1-5, single SC dose 0.5-7.5 mg, preliminary and blinded data): generally well-tolerated

Reference: patent publication US20240390464A1, “Treatment of Adults With Overweight or Obesity With or Without Weight-Related Comorbidities” (Carmot Therapeutics Inc., priority 2023, published 2024)
